Reference: the supplement of paper PMC10307832

What was measured:
Test in all cases: relative viability (nuclei count vs DMSO), 5 days (fraction); higher = more cells survive
[1] = tested on: NCI-H520
Method in brief: (§1)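 Medians of duplicate plates are given as relative viability. That measure is the nuclei count in treated wells divided by the count in vehicle wells. Counts were taken on 4× images of lung cancer cell lines in 1536-well plates, 5 days after pin-tool dosing the day after seeding with one drug alone or a fixed anchor-drug dose plus five library-drug doses (not always all listed) in √10 steps.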

[2] = tested on: NCI-H838
Method in brief: as §1

[3] = tested on: IA-LM
Method in brief: as §1

[4] = tested on: Calu-6
Method in brief: as §1

[5] = tested on: A549
Method in brief: as §1

[6] = tested on: NCI-H1299
Method in brief: as §1

[7] = tested on: RERF-LC-KJ
Method in brief: as §1

[8] = tested on: NCI-H650
Method in brief: as §1

[9] = tested on: NCI-H1651
Method in brief: as §1

[10] = tested on: EBC-1
Method in brief: as §1

[11] = tested on: NCI-H1944
Method in brief: as §1

[12] = tested on: NCI-H1703
Method in brief: as §1

Q: O=c1cc(-c2cccc3c2Sc2ccccc2S3)oc(N2CCOCC2)c1 + C[C@@H](Oc1cc(-c2cnn(C3CCNCC3)c2)cnc1N)c1c(Cl)ccc(F)c1Cl [Crizotinib] (partner 1 µM) was tested. Which relative viability ([1]; first compound 0.08 µM) did it give?
A: 0.447

Q: And the relative viability ([1]; first compound 0.253 µM)?
A: 0.695

Q: What about the relative viability ([1]; first compound 0.8 µM) of the same compound?
A: 0.976

Q: And the relative viability ([1]; first compound 2.53 µM)?
A: 0.821

Q: What about the relative viability ([1]; first compound 8 µM) of the same compound?
A: 0.821

Q: What about the relative viability ([2]; first compound 0.08 µM) of the same compound?
A: 0.883

Q: And the relative viability ([2]; first compound 0.253 µM)?
A: 0.988

Q: And the relative viability ([2]; first compound 0.8 µM)?
A: 0.82

Q: What about the relative viability ([2]; first compound 2.53 µM) of the same compound?
A: 0.794

Q: What about the relative viability ([2]; first compound 8 µM) of the same compound?
A: 0.816

Q: And the relative viability ([3]; first compound 0.08 µM)?
A: 0.899

Q: What about the relative viability ([3]; first compound 0.253 µM) of the same compound?
A: 0.971

Q: What about the relative viability ([3]; first compound 0.8 µM) of the same compound?
A: 0.847

Q: And the relative viability ([3]; first compound 8 µM)?
A: 0.9

Q: And the relative viability ([4]; first compound 0.08 µM)?
A: 0.725

Q: And the relative viability ([4]; first compound 0.253 µM)?
A: 0.839

Q: What about the relative viability ([4]; first compound 0.8 µM) of the same compound?
A: 0.969

Q: What about the relative viability ([4]; first compound 2.53 µM) of the same compound?
A: 0.692

Q: What about the relative viability ([4]; first compound 8 µM) of the same compound?
A: 0.733

Q: What about the relative viability ([5]; first compound 0.08 µM) of the same compound?
A: 0.706

Q: What about the relative viability ([5]; first compound 0.253 µM) of the same compound?
A: 1.11

Q: And the relative viability ([5]; first compound 0.8 µM)?
A: 0.765

Q: What about the relative viability ([5]; first compound 2.53 µM) of the same compound?
A: 0.691

Q: And the relative viability ([5]; first compound 8 µM)?
A: 0.578

Q: What about the relative viability ([6]; first compound 0.08 µM) of the same compound?
A: 0.999

Q: What about the relative viability ([6]; first compound 0.253 µM) of the same compound?
A: 0.977

Q: What about the relative viability ([6]; first compound 0.8 µM) of the same compound?
A: 1

Q: What about the relative viability ([6]; first compound 2.53 µM) of the same compound?
A: 0.956

Q: And the relative viability ([6]; first compound 8 µM)?
A: 0.835

Q: What about the relative viability ([7]; first compound 0.08 µM) of the same compound?
A: 0.823

Q: What about the relative viability ([7]; first compound 0.253 µM) of the same compound?
A: 0.922

Q: And the relative viability ([7]; first compound 0.8 µM)?
A: 0.871

Q: And the relative viability ([7]; first compound 2.53 µM)?
A: 0.948

Q: And the relative viability ([7]; first compound 8 µM)?
A: 1.05

Q: And the relative viability ([8]; first compound 0.08 µM)?
A: 0.702

Q: And the relative viability ([8]; first compound 0.253 µM)?
A: 0.606

Q: And the relative viability ([8]; first compound 0.8 µM)?
A: 0.74

Q: What about the relative viability ([8]; first compound 2.53 µM) of the same compound?
A: 0.58

Q: And the relative viability ([8]; first compound 8 µM)?
A: 0.694

Q: What about the relative viability ([9]; first compound 0.08 µM) of the same compound?
A: 0.916

Q: And the relative viability ([9]; first compound 0.253 µM)?
A: 0.889

Q: What about the relative viability ([9]; first compound 0.8 µM) of the same compound?
A: 0.916

Q: And the relative viability ([9]; first compound 2.53 µM)?
A: 0.882

Q: And the relative viability ([9]; first compound 8 µM)?
A: 0.903

Q: And the relative viability ([10]; first compound 0.08 µM)?
A: 0.212

Q: What about the relative viability ([10]; first compound 0.253 µM) of the same compound?
A: 0.175

Q: And the relative viability ([10]; first compound 0.8 µM)?
A: 0.156

Q: And the relative viability ([10]; first compound 2.53 µM)?
A: 0.182

Q: And the relative viability ([10]; first compound 8 µM)?
A: 0.26

Q: What about the relative viability ([11]; first compound 0.08 µM) of the same compound?
A: 1.12

Q: What about the relative viability ([11]; first compound 0.253 µM) of the same compound?
A: 1.23

Q: What about the relative viability ([11]; first compound 0.8 µM) of the same compound?
A: 1.17

Q: What about the relative viability ([11]; first compound 8 µM) of the same compound?
A: 1.08

Q: What about the relative viability ([12]; first compound 0.08 µM) of the same compound?
A: 0.463

Q: What about the relative viability ([12]; first compound 0.253 µM) of the same compound?
A: 0.519

Q: What about the relative viability ([12]; first compound 0.8 µM) of the same compound?
A: 0.99

Q: And the relative viability ([12]; first compound 2.53 µM)?
A: 1.01

Q: And the relative viability ([12]; first compound 8 µM)?
A: 0.777
